Data taken from ChEMBL document CHEMBL1131962, “A new class of selective and potent inhibitors of neuronal nitric oxide synthase” (Bioorg Med Chem Lett, 1999).
pIC50, pKi: −log10 of the molar value.

Experiments:
Nitric oxide synthase 1 [1] = target: Nitric oxide synthase 1 (Homo sapiens, UniProt P29475); experiment: Inhibitory activity against human neuronal nitric oxide synthase (nNOS)
D(2) dopamine receptor [2] = target: T1, D(2) dopamine receptor (Homo sapiens, UniProt P14416); experiment: Binding affinity of compound to Dopamine receptor D2
T1 sequence (P14416 whole entry): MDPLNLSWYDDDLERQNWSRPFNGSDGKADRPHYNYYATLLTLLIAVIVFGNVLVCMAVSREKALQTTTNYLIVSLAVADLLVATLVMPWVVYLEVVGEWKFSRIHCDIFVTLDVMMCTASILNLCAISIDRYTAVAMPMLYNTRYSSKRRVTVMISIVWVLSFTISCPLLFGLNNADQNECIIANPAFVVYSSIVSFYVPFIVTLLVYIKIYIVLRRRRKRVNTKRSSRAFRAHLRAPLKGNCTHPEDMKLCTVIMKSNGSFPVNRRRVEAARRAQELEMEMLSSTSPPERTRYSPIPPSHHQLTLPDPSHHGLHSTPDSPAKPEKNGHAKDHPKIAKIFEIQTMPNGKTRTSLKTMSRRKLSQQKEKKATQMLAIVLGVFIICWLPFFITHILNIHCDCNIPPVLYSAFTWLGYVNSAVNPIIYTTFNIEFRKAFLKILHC

[3] = Half life in rats; type: ADME, organism-based; conditions: rat, in vivo
[4] = target: T2, Muscarinic acetylcholine receptor M2 (Homo sapiens, UniProt P08172); experiment: Binding affinity of compound to m2 muscarinic receptor
T2 sequence (P08172 whole entry): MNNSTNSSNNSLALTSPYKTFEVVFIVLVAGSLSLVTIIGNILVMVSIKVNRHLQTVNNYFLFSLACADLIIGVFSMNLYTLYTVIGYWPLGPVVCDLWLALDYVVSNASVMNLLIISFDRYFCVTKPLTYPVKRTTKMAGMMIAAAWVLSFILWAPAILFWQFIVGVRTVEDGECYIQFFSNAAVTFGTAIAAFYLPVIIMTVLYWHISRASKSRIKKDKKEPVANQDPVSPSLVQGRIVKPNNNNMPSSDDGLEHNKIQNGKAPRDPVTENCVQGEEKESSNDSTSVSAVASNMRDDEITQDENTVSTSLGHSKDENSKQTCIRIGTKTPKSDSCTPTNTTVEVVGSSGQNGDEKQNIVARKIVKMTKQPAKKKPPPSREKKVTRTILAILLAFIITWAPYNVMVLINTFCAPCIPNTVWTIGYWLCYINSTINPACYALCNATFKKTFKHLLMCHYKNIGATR

[5] = Maximum concentration in CSF at 30 min following 24 mg/kg subcutaneous dose in rats; type: ADME, organism-based, Cerebrospinal fluid; set-up: dose 24 mg/kg, route subcutaneous; conditions: rat, sc
[6] = Maximum concentration in whole brain at 30 min following 24 mg/kg subcutaneous dose in rats; type: ADME, organism-based; set-up: dose 24 mg/kg, route subcutaneous; conditions: rat, sc
[7] = Maximum concentration in plasma at 30 min following 24 mg/kg subcutaneous dose in rats; type: ADME, organism-based; set-up: dose 24 mg/kg, route subcutaneous; conditions: rat, sc
[8] = target: T3, Muscarinic acetylcholine receptor M4 (Homo sapiens, UniProt P08173); experiment: Binding ability of compound to m4 muscarinic receptor
T3 sequence (P08173 whole entry): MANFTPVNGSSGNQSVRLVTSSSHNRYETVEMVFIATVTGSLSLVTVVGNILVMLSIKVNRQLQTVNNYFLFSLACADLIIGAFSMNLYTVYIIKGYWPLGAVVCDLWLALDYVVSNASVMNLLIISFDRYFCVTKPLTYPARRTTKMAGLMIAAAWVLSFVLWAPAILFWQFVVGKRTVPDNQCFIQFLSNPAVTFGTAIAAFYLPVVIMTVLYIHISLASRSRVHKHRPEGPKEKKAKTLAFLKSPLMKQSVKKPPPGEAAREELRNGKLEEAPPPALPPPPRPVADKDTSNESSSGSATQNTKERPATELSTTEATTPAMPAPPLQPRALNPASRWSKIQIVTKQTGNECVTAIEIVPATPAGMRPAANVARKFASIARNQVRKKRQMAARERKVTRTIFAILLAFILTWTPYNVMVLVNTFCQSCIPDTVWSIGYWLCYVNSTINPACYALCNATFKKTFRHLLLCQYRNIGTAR

Nitric oxide synthase 3 = target: T4, Nitric oxide synthase 3 (Homo sapiens, UniProt P29474); experiment: Inhibitory activity against human endothelial nitric oxide synthase (eNOS)
T4 sequence (P29474 whole entry): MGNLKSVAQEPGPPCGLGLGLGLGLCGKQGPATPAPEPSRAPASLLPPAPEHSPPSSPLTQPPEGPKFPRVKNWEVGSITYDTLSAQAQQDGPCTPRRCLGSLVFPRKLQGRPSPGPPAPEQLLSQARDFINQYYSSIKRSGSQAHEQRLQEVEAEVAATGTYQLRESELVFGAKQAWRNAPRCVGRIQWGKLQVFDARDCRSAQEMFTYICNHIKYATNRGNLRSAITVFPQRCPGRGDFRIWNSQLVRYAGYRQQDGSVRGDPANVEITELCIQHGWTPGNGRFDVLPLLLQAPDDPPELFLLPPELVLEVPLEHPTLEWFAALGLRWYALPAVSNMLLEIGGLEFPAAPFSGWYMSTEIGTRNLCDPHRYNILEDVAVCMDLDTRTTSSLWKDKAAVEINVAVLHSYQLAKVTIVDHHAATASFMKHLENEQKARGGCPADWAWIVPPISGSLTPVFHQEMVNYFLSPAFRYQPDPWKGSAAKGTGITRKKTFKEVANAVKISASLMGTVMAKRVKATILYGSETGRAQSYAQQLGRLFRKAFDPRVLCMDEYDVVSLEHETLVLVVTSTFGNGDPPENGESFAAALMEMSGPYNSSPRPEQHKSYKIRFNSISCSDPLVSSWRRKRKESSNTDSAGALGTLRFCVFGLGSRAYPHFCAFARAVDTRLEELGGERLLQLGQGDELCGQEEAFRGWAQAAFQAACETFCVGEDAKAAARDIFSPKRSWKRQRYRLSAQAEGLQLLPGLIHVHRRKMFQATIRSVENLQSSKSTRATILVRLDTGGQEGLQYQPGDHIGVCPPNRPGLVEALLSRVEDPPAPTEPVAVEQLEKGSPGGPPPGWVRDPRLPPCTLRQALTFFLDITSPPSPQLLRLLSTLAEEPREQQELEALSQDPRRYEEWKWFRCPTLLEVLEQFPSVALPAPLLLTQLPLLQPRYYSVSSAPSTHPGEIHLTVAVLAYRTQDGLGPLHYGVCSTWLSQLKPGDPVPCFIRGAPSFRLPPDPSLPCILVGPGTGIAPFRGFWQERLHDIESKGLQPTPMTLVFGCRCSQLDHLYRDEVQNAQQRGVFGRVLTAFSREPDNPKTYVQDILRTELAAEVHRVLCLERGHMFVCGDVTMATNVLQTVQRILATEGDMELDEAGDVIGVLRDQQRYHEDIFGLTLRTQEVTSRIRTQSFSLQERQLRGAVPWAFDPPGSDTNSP

Nitric oxide synthase 1 [9] = target: Nitric oxide synthase 1 (Rattus norvegicus, UniProt P29476); experiment: Inhibitory activity against rat neuronal nitric oxide synthase (nNOS)
Nitric oxide synthase 1 (Rattus norvegicus, UniProt P29476), sequence (P29476 whole entry): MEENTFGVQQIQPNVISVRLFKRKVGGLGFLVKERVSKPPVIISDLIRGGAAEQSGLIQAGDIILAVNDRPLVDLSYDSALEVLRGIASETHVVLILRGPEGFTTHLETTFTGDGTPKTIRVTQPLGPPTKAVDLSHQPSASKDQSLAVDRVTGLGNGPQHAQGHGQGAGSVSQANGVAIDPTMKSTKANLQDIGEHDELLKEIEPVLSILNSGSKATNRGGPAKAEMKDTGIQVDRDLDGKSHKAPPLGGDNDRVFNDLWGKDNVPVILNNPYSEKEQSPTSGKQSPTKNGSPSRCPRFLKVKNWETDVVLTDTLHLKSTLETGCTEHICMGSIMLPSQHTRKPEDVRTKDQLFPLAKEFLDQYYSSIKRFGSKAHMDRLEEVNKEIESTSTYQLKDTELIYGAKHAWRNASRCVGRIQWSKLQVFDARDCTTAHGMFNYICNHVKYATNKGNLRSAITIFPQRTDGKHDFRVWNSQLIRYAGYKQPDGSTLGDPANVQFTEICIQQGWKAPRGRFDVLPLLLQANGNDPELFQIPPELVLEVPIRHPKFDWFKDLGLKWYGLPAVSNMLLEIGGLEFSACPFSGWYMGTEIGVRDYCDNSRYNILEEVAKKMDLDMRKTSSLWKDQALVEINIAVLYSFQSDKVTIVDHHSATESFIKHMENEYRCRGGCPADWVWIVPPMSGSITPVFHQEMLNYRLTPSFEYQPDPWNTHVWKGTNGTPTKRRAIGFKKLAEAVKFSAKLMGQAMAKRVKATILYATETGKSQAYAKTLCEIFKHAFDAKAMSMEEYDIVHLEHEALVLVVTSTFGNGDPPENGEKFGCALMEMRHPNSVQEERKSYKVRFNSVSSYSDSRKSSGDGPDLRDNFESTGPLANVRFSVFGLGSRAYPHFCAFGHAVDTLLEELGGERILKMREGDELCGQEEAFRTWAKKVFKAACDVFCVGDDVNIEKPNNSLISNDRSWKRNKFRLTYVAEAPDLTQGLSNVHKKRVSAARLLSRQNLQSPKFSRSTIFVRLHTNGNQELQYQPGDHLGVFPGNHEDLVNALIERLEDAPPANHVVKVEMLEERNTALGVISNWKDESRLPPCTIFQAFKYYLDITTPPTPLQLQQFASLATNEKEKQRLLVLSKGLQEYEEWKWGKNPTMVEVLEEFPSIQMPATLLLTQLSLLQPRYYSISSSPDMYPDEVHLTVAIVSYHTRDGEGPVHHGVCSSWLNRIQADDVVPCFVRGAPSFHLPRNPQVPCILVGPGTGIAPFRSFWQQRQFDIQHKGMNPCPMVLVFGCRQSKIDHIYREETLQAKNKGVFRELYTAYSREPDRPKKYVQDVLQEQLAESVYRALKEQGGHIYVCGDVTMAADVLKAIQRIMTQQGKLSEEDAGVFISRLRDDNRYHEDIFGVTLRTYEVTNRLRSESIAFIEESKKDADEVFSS

D(2) dopamine receptor [10] = target: T1, D(2) dopamine receptor; experiment: Binding ability of compound to human Dopamine receptor D2
[11] = target: T5, 5-hydroxytryptamine receptor 1A (Homo sapiens, UniProt P08908); experiment: Binding affinity of compound to human 5-hydroxytryptamine 1A receptor
T5 sequence (P08908 whole entry): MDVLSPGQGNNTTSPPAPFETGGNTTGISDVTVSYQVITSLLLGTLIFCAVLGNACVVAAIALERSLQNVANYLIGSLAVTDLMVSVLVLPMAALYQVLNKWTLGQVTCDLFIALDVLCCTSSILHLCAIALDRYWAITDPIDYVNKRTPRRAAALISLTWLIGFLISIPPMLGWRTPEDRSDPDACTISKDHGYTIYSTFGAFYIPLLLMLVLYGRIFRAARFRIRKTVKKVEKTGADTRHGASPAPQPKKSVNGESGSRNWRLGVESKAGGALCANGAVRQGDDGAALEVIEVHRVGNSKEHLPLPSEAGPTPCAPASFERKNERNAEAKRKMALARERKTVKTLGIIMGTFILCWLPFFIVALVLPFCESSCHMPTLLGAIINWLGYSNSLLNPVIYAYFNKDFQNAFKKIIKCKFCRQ

[12] = target: 5-hydroxytryptamine receptor 2A (Homo sapiens, UniProt P28223); experiment: Binding affinity of compound to human 5-hydroxytryptamine 2A receptor
5-hydroxytryptamine receptor 2A, sequence (P28223 whole entry): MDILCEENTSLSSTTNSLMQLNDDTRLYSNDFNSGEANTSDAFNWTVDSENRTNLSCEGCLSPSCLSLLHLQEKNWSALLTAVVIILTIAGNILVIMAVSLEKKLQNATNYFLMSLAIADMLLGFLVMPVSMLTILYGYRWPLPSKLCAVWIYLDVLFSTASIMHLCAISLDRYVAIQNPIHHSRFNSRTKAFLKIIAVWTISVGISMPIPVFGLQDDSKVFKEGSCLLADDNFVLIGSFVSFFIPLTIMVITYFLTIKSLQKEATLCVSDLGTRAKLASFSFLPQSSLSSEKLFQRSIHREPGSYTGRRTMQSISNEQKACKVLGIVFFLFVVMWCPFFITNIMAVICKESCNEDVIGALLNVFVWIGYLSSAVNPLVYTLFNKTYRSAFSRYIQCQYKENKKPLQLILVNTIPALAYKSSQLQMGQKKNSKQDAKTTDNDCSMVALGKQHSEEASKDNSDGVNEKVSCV

Nitric oxide synthase 1 (Homo sapiens, UniProt P29475), sequence (P29475 whole entry): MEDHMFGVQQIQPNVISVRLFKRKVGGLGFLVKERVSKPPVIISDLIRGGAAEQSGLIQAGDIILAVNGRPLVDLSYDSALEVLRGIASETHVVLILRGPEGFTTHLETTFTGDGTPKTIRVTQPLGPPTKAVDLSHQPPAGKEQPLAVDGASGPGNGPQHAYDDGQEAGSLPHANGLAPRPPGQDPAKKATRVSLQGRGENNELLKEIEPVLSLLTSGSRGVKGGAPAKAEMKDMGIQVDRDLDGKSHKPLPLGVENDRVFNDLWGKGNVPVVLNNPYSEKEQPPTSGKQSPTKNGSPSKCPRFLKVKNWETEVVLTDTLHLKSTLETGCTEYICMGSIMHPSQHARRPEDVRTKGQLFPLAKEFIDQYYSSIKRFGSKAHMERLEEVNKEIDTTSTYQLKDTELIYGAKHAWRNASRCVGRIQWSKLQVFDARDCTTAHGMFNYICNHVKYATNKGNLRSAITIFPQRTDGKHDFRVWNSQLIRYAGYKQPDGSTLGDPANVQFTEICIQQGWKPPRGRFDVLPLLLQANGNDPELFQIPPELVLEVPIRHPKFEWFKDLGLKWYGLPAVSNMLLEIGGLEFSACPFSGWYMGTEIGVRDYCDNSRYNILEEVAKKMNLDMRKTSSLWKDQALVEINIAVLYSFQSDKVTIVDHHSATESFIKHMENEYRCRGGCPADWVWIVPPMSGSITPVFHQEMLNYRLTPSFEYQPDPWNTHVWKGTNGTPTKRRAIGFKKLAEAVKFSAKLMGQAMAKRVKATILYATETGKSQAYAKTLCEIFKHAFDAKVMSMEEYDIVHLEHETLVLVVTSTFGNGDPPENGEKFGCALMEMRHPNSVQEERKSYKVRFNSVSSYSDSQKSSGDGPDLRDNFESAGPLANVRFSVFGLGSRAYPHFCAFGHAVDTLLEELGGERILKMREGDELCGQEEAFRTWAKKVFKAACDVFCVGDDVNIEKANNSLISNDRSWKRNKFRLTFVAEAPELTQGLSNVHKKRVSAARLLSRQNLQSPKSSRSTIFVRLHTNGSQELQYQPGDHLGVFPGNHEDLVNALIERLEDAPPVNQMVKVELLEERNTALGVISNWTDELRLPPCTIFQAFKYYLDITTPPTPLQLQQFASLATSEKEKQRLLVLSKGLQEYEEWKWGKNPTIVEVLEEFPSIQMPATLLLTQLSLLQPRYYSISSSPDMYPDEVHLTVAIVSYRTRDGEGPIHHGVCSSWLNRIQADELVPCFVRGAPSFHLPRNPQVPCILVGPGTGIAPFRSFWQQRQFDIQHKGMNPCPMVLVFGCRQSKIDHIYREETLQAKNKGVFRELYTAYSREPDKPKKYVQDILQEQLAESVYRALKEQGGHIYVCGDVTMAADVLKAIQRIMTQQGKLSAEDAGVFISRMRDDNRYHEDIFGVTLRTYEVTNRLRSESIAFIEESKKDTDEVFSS

SMILES | pIC50 (Nitric oxide synthase 1 [1]) | pIC50 (Nitric oxide synthase 3) | pIC50 (Nitric oxide synthase 1 [9]) | other results
Nc1cccc(-c2ccc(CCN3CCN(CC(=O)c4ccccc4)CC3)cc2)n1 | 6.85 | 6.05 | 6.90 | pIC50 (D(2) dopamine receptor [2]): < 5.00; half-life [3]: 3.6 h; pKi [4]: 6.49; Cmax [5]: 450 ng/mL; Cmax [6]: 11000 ng/mL; Cmax [7]: 1700 ng/mL; pKi [8]: 6.23
Nc1cccc(-c2ccc(CCN3CCN(C(=O)Cc4ccccc4)CC3)cc2)n1 | 6.86 | 6.16 | 6.97 | –
Nc1cccc(-c2ccc(CCN3CCN(CCc4ccccc4)CC3)cc2)n1 | 6.58 | 6.35 | 6.61 | –
Nc1cccc(-c2ccc(CCN3CCN(c4cccc5cccnc45)CC3)cc2)n1 | 6.67 | 6.08 | 6.89 | pKi (D(2) dopamine receptor [10]): 7.96; pKi [11]: 8.52; pKi [12]: 7.85
CC(C)NC(=O)CN1CCN(CCc2ccc(-c3cccc(N)n3)cc2)CC1 | 6.48 | 6.09 | 6.59 | –
O=[N+]([O-])c1cccc2cn[nH]c12 [7-NITROINDAZOLE] | 5.54 | – | – | –
CC(C)CN1CCN(CCc2ccc(-c3cccc(N)n3)cc2)CC1 | 6.46 | 6.43 | 6.71 | –
